Data reported in patent US20220331348A1, “METHOD OF PREPARING PENTACYCLIC TRITERPENOID SAPONINS AND DRUG COMPOSITION” (CHINA PHARMACEUTICAL UNIVERSITY, priority 2019, published 2022).

Tested on: TNBS modeled Crohn's disease model mice
Assay: 2,4,6-trinitrobenzene sulfonic acid (TNBS) modeled Crohn's disease model mice
Assay type: in vivo, mouse
Details: dose not given; for expression level of inflammatory factor IL-1β / expression level of inflammatory factor TNF-α: vs model group
Procedure: C57BL/6 male mice with 6-8 weeks old were selected and randomly divided into a control group, a mode group, a treatment group and a positive control group. Expect for the control group, after the mice in the rest groups anesthetized with isoflurane, hoses were carefully inserted into colons of the mice from anuses, and […] of 1.5% 2,4,6-trinitrobenzene sulfonic acid (TNBS) was slowly injected. Before the hoses were pulled out, the mice were placed upside down for 1 min. First intragastric administration was conducted at the day of enema treatment, the mice in the control group and the model group were orally administered with carboxymethyl cellulose sodium as a placebo, the mice in the treatment group were orally administered with the ziyuglycoside II (purchased from Shanghai Boka Chemistry Technology Co., Ltd) (with a dosage of 5 mg/kg), and the mice in the positive drug group were orally administered with 5-aminosalicylic acid as a clinical drug (5-ASA, purchased from Shanghai Sangon Biological Engineering Co., Ltd) (with a dosage of 100 mg/kg). Administration was continuously conducted for 7 days. In the administration process, the states of the mice were observed every day, and weight changes of the mice were recorded.
Differences in weight change of the mice in various groups were compared, from which, ziyuglycoside II has the treatment effect on the 2, 4, 6-trinitrobenzene sulfonic acid (TNBS) modeled Crohn's disease model mice.
The above mice were sacrificed by cervical dislocation at day 8, colon tissues were harvested, lengths of the colon tissues were measured for statistical summary, and differences in colon length of various groups were compared, from which, the ziyuglycoside II has significant treatment effect on the Crohn's disease model mice. […] 10 mg of proximal rectum segments of the colon tissues of the above mice were selected, PBS was added for homogenization, and centrifugation was conducted for taking a supernate. The supernate was subjected to ELISA detection, and protein quantification was conducted for inflammatory factors TNF- and IL-1. […] Myeloperoxidase (MPO) is an enzyme specific to neutrophils, and the amount of the neutrophils in the intestinal tracts may be reflected by detecting the MPO level. 5 mg of proximal rectum segments of the colon tissues of the above mice were selected, PBS was added for homogenization, and the content of the MPO in a homogenate was detected with a MPO kit (purchased from Nanjing Jiancheng Bioengineering Institute). […] Therefore, the ziyuglycoside II is expected to be useful for preparing the drug for preventing or treating the inflammatory bowel diseases such as the Crohn's disease.

| Compound | colon length of the treatment group compared with the control group | expression level of inflammatory factor IL-1β | expression level of inflammatory factor TNF-α |
| --- | --- | --- | --- |
| CC1(C)CC[C@]2(C(=O)O[C@@H]3O[C@H](CO[C@@H]4O[C@H](CO)[C@@H](O)[C@H](O)[C@H]4O)[C@@H](O)[C@H](O)[C@H]3O)CC[C@]3(C)C(=CC[C@@H]4[C@@]5(C)CC[C@H](O[C@@H]6OC[C@H](O)[C@H](O)[C@H]6O)[C@@](C)(CO)[C@@H]5CC[C@]43C)[C@@H]2C1 [(II), asperosaponin VI] | nearly no difference | significantly lower than those of the model group | significantly lower than those of the model group |
| C[C@H]1O[C@@H](O[C@H]2CC[C@@]3(C)[C@@H](CC[C@]4(C)[C@@H]3C=C[C@]35OC[C@@]6(CCC(C)(C)C[C@H]63)[C@H](O)C[C@]54C)[C@]2(C)CO)[C@H](O)[C@@H](O[C@@H]2O[C@H](CO)[C@@H](O)[C@H](O)[C@H]2O)[C@H]1O [(VIII), saikosaponin D] | nearly no difference | significantly lower than those of the model group | significantly lower than those of the model group |
| C[C@H]1O[C@@H](O[C@H]2CC[C@@]3(C)[C@@H](CC[C@]4(C)[C@@H]3C=C[C@]35OC[C@@]6(CCC(C)(C)C[C@H]63)[C@@H](O)C[C@]54C)[C@]2(C)CO)[C@H](O)[C@@H](O[C@@H]2O[C@H](CO)[C@@H](O)[C@H](O)[C@H]2O)[C@H]1O [(VII), saikosaponin A] | nearly no difference | significantly lower than those of the model group | significantly lower than those of the model group |
